According to patent US7728012B2, “Carboxamide compounds and their use as calpain inhibitors” (Abbott GmbH & Co. KG, priority 2006, dated 2010):

How the values were obtained:
Format in all cases: biochemical
[1] = molecular target: T1, calpain-I isolated from human erythrocytes (Homo sapiens, UniProt P07384); test: Calpain I kinetic fluorescence enzyme inhibition assay; details: apparent Ki from IC50 by Cheng-Prussoff; average of 2 to 4 dose-effect plots
T1 construct: calpain-I—isolated from human erythrocytes; purchased Calbiochem 208713; host or cells: human erythrocytes (tissue isolate)
T1 sequence (P07384 1-714): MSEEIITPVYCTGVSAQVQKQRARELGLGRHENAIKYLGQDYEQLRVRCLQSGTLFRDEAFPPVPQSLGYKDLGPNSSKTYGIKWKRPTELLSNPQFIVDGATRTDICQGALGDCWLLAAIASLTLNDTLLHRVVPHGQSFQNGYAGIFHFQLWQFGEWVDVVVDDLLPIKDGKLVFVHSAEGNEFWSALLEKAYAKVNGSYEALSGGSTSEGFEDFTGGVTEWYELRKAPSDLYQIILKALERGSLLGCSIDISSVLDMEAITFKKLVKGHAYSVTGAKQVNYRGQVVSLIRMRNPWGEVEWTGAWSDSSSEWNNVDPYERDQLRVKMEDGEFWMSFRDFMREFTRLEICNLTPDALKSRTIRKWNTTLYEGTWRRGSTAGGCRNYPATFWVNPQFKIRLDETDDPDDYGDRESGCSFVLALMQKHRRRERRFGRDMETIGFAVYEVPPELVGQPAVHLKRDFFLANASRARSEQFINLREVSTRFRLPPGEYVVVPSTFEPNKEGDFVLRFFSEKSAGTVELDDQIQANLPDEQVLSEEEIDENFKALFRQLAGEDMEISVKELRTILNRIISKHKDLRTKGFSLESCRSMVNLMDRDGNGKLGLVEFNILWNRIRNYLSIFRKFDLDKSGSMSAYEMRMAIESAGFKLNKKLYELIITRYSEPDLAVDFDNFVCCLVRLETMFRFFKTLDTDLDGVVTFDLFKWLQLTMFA
T1 sequence (P04632 1-268 partner): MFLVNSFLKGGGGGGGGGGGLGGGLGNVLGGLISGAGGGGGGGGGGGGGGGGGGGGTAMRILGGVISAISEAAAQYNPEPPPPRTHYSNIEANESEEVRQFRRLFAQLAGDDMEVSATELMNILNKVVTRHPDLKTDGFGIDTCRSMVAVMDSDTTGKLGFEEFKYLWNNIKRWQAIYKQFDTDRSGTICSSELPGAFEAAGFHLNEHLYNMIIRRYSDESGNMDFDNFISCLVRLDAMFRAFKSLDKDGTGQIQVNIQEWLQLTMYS

[2] = molecular target: T2, cathepsin B isolated from human liver (Homo sapiens, UniProt P07858); test: Cathepsin B kinetic fluorescence enzyme inhibition assay; details: selectivity ratio versus calpain I
T2 construct: cathepsin B—isolated from human liver; purchased Calbiochem 219362; host or cells: human liver (tissue isolate)
Procedure: (§1) The following solutions and buffers were employed: • HBS (for 40 ml): 800 μl M HEPES; 2.16 ml 100 mM KCl; 4.8 ml 1M NaCl; 3.59 ml 5% glucose; 60 μl μM MgSO4; 400 μl 100 mM Na pyruvate, 28.19 ml water; pH 7.2-7.5. • lysis buffer (for 20 ml): 400 μl M Tris pH 8.2; 2.74 ml 1M NaCl; 520 μl 0.5M EDTA; 2 ml 10% triton X-100; 0.8 ml (=1:25) CompletePlus (1 tablet/2 ml H2O); 200 μl 100 mM Pefabloc; 13.34 ml water, pH 8.2. • TBST (10×) (for 1 l): 100 mM Tris (12.1 g); 1.5M NaCl (87 g); 1% Tween 20 (10 g), adjusted to pH 8. I Enzyme Inhibition In Vitro: • Testing for blockade of the corresponding enzymic activities was carried out by means of kinetic fluorescence assays (excitation 390 nm, emission 460 nm). • Apparent Ki values were calculated from the experimentally determined IC50 values by the Cheng-Prussoff relation assuming a reversible competitive enzyme inhibition. The Km values of the substrates used under the assay conditions indicated above were: 90 μM (Z-Phe-Arg-AMC, cathepsin B), 10 μM (Z-Gly-Pro-Arg-AMC, cathepsin K), 2 μM (Z-Phe-Arg-AMC, cathepsin L), and 30 μM (Z-Val-Val-Arg-AMC, cathepsin S). • The indicated Ki values are averages of the inhibition constants calculated on the basis of 2 to 4 independent dose-effect plots.
(§2) The following assays were used: • 1. Calpain I: • 20 nM calpain-I—isolated from human erythrocytes (Calbiochem #208713), 100 μM Suc-Leu-Tyr-AMC (Bachem #1-1355) as substrate in buffer with 62 mM imidazole, 0.3 mM CaCl2, 0.10% CHAPS, 0.05% BSA, 1 mM DTT at pH 7.3 and room temperature. • 2. Cathepsin B: • 0.25 nM cathepsin B—isolated from human liver (Calbiochem #219362), 100 μM Z-Phe-Arg-AMC (Bachem #I-1160) as substrate 50 mM MES, 2 mM EDTA, 0.05% Brij 35, 2.5 mM L-cysteine, pH 6.0, room temperature. • 3. Cathepsin K: • 3 nM cathepsin K—activated from recombinant human procathepsin K from E. coli (Calbiochem #342001), 10 μM Z-Gly-Pro-Arg-AMC (Biomol #P-142) as substrate in 50 mM MES, 2 mM EDTA, 0.05% Brij 35, 2.5 mM L-cysteine, pH 6.0, room temperature. • 4. Cathepsin L: • 1 nM cathepsin L—isolated from human liver (Calbiochem #219402), 2 μM Z-Phe-Arg-AMC (Bachem #1-1160) as substrate in 50 mM MES, 2 mM EDTA, 0.05% Brij 35, 2.5 mM L-cysteine, pH 6.0, room temperature. • 5. Cathepsin S: • 0.5 nM recombinant human cathepsin S from E. coli (Calbiochem #219343), 20 μM Z-Val-Val-Arg-AMC (Bachem #1-1540) as substrate in 50 mM MES, 2 mM EDTA, 0.05% Brij 35, 2.5 mM L-cysteine, pH 6.0, room temperature. • The results of the in vitro determination are indicated in Table 1. The following abbreviations are used in Table 1: • The “Calpain activity” column, ++ stands for a calpain Ki (Ki(calpain)) of ≦40 nM and + means: 40 nM<Ki(Calpain)≦100 nM. • The “Sel. cat. B” column indicates the Ki(cathepsin B)/Ki(calpain) ratio. In this connection, ++ means a Ki(cathepsin B)/Ki(calpain) ratio of ≧30 and + means 10≦Ki(cathepsin B)/Ki(calpain)<30. • The “Sel. cat. K” column indicates the Ki(cathepsin K)/Ki(calpain) ratio. In this connection, ++ means a Ki(cathepsin K)/Ki(calpain) ratio of ≧30 and + means 10≦Ki(cathepsin K)/Ki(calpain)<30. • The “Sel. cat. L” column indicates the Ki(cathepsin L)/Ki(calpain) ratio. In this connection, ++ means a Ki(cathepsin L)/Ki(calpain) ratio of ≧50 and + means 30≦Ki(cathepsin L)/Ki(calpain)<50. • The “Sel. cat. S” column indicates the Ki(cathepsin S)/Ki(calpain) ratio. In this connection, ++ means a Ki(cathepsin S)/Ki(calpain) ratio of ≧100 and + means 50≦Ki(cathepsin S)/Ki(calpain)<100.

[3] = molecular target: T3, recombinant human cathepsin S (Homo sapiens, UniProt P25774); test: Cathepsin S kinetic fluorescence enzyme inhibition assay; details: selectivity ratio versus calpain I
T3 construct: purchased Calbiochem 219343; host or cells: E. coli
Procedure, shortened: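 Cathepsin B (0.25 nM, human liver) with 100 μM Z-Phe-Arg-AMC; L (1 nM, human liver) with 2 μM Z-Phe-Arg-AMC; S (0.5 nM, recombinant) with 20 μM Z-Val-Val-Arg-AMC. pH 6.0 MES buffer, 2.5 mM L-cysteine, room temperature. Kinetic fluorescence (ex 390/em 460 nm); apparent Ki from IC50 by Cheng-Prusoff.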

[4] = molecular target: T4, cathepsin L isolated from human liver (Homo sapiens, UniProt P07711); test: Cathepsin L kinetic fluorescence enzyme inhibition assay; details: selectivity ratio versus calpain I
T4 construct: cathepsin L—isolated from human liver; purchased Calbiochem 219402; host or cells: human liver (tissue isolate)
Procedure: as §1, §2

T3 sequence (P25774 115-331): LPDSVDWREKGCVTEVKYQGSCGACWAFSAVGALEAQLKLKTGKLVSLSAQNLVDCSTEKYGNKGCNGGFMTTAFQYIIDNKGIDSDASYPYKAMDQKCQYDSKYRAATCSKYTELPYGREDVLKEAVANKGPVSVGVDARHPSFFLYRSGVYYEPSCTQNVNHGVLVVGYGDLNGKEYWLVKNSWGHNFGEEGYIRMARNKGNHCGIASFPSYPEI
T4 sequence (P07711 114-333): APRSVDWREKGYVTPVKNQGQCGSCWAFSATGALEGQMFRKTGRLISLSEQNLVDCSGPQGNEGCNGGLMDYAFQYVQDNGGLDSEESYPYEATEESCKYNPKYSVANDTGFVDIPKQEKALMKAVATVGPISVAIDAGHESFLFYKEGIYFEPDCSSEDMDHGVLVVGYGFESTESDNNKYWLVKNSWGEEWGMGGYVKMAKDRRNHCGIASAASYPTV

Row | Compound | Ki [1] [nM] | Sel cat. B (Ki(cathepsin B)/Ki(calpain) ratio) [2] | Sel cat. S (Ki(cathepsin S)/Ki(calpain) ratio) [3] | Sel cat. L (Ki(cathepsin L)/Ki(calpain) ratio) [4]
1 | CCCCC(NC(=O)c1cc(Cl)cnc1-n1ccc(-c2ccccc2)n1)C(=O)C(N)=O (stereo not drawn) [Example 28, N-{1-[Amino(oxo)acetyl]pentyl}-5-chloro-2-(3-phenyl-1H-pyrazol-1-yl)nicotinamide] | ≤ 40 | + (10≦Ki(cathepsin B)/Ki(calpain)<30) |  | 
2 | CC(C)CC(NC(=O)c1cc(Cl)cnc1-n1ccc(-c2ccccc2)n1)C(=O)C(N)=O (stereo not drawn) [Example 32, N-{1-[Amino(oxo)acetyl]-3-methylbutyl}-5-chloro-2-(3-phenyl-1H-pyrazol-1-yl)nicotinamide] | ≤ 40 | + (10≦Ki(cathepsin B)/Ki(calpain)<30) |  | 
3 | CCCCC(NC(=O)c1cccnc1-n1ccc(-c2ccc(N3CCOCC3)cc2)n1)C(=O)C(N)=O (stereo not drawn) [Example 33, N-{1-[Amino(oxo)acetyl]pentyl}-2-[3-(4-morpholin-4-ylphenyl)-1H-pyrazol-1-yl]nicotinamide] | ≤ 40 | + (10≦Ki(cathepsin B)/Ki(calpain)<30) | + (50≦Ki(cathepsin S)/Ki(calpain)<100) | 
4 | NC(=O)C(=O)C(Cc1cccs1)NC(=O)c1cccnc1-n1ccc(-c2ccccc2)n1 (stereo not drawn) [Example 40, N-[3-Amino-2,3-dioxo-1-(2-thienylmethyl)propyl]-2-(3-phenyl-1H-pyrazol-1-yl)pyridine-3-carboxamide] | ≤ 40 | + (10≦Ki(cathepsin B)/Ki(calpain)<30) | ++ (Ki(cathepsin S)/Ki(calpain) ratio of ≧100) | ++ (Ki(cathepsin L)/Ki(calpain) ratio of ≧50)
5 | NC(=O)C(=O)C(Cc1ccccc1)NC(=O)c1cccnc1-n1ccc(-c2ccc(N3CCCCC3)cc2)n1 (stereo not drawn) [Example 64, N-(3-Amino-1-benzyl-2,3-dioxopropyl)-2-[3-(4-piperidin-1-ylphenyl)-1H-pyrazol-1-yl]nicotinamide] | ≤ 40 | + (10≦Ki(cathepsin B)/Ki(calpain)<30) | ++ (Ki(cathepsin S)/Ki(calpain) ratio of ≧100) | 
6 | NC(=O)C(=O)C(Cc1ccc(Br)cc1)NC(=O)c1cccnc1-n1ccc(-c2ccccc2)n1 (stereo not drawn) [Example 122, N-{3-Amino-1-[(4-bromophenyl)methyl]-2,3-dioxopropyl}-2-(3-phenyl-1H-pyrazol-1-yl)pyridine-3-carboxamide] | ≤ 40 | ++ (Ki(cathepsin B)/Ki(calpain) ratio of ≧30) | ++ (Ki(cathepsin S)/Ki(calpain) ratio of ≧100) | ++ (Ki(cathepsin L)/Ki(calpain) ratio of ≧50)
7 | NC(=O)C(=O)C(Cc1ccccc1)NC(=O)c1cccnc1-n1ccc(-c2cccc3cnccc23)n1 (stereo not drawn) [Example 156, N-[3-Amino-2,3-dioxo-1-(phenylmethyl)propyl]-2-(3-isoquinolin-5-yl-1H-pyrazol-1-yl)pyridine-3-carboxamide] |  | + (10≦Ki(cathepsin B)/Ki(calpain)<30) | ++ (Ki(cathepsin S)/Ki(calpain) ratio of ≧100) | + (30≦Ki(cathepsin L)/Ki(calpain)<50)
8 | N-{3-Amino-1-[(4-fluorophenyl)methyl]-2,3-dioxopropyl}-2-[3-(2,3-dichlorophenyl)-1H-pyrazol-1-yl]pyridine-3-carboxamide [Example 161] |  | + (10≦Ki(cathepsin B)/Ki(calpain)<30) | ++ (Ki(cathepsin S)/Ki(calpain) ratio of ≧100) | + (30≦Ki(cathepsin L)/Ki(calpain)<50)

Further lines, with some results ahead:

Row | Ki [1] [nM] | Sel cat. B (Ki(cathepsin B)/Ki(calpain) ratio) [2] | Compound | Sel cat. S (Ki(cathepsin S)/Ki(calpain) ratio) [3] | Sel cat. L (Ki(cathepsin L)/Ki(calpain) ratio) [4]
9 |  | + (10≦Ki(cathepsin B)/Ki(calpain)<30) | Cc1cc(-c2ccccc2)nn1-c1ncccc1C(=O)NC(Cc1ccccc1)C(=O)C(N)=O (stereo not drawn) [Example 61, N-(3-Amino-1-benzyl-2,3-dioxopropyl)-2-(5-methyl-3-phenyl-1H-pyrazol-1-yl)nicotinamide] | ++ (Ki(cathepsin S)/Ki(calpain) ratio of ≧100) | 
10 | ≤ 40 | + (10≦Ki(cathepsin B)/Ki(calpain)<30) | Cc1cn(-c2ncccc2C(=O)NC(Cc2ccccc2)C(=O)C(N)=O)nc1-c1ccccc1 (stereo not drawn) [Example 84, N-(3-Amino-1-benzyl-2,3-dioxopropyl)-2-(4-methyl-3-phenyl-1H-pyrazol-1-yl)nicotinamide] | ++ (Ki(cathepsin S)/Ki(calpain) ratio of ≧100) | ++ (Ki(cathepsin L)/Ki(calpain) ratio of ≧50)
